Numbered stars: 1 amine (or outer) side, 2 acyl side, 3 side chain; on linkers, the order of the positions; unused ones are H or OH. Bridge positions count the residues as written; N and C are the ends. Square brackets hold non-standard residues; d marks the D form. Peptide text beside a SMILES is read from it. * marks the point of attachment. X1 = O=C(O)CN1CCN(CC(=O)O)CCN(CC(=O)N2CCN(Cc3cc(C[*:1])cc(C[*:2])c3)CC2)CCN(CC(=O)O)CC1; X35 = O=C(O)CN(CCN(CCN(CC(=O)O)CC(=O)O)CC(=O)NCCCOCCOCCOCCCN*)CC(=O)O; X39 = NCCOCCOCC(=O)NCCSCc1cc(C[*:1])cc(C[*:2])c1; X12 = NCCNCC(CNCCN)C(=O)NCCCOCCOCCOCCCN*; mXylylene = c1cc(C[*:1])cc(C[*:2])c1; X25 = NCCSCc1cc(C[*:1])cc(C[*:2])c1; X41 = NCCCCCC(=O)NCCCOCCOCCOCCCN*; X51 = O=C(CN1CCC(N[*:1])CC1)[*:2]; 4Pal = N[C@@H](Cc1ccncc1)C(=O)O; Suc = O=C(CCC(=O)[*:2])[*:1]; X18 = NCCNCC(CNCCN)C(=O)*; Nle = CCCC[C@H](N)C(=O)O; Hexanoyl = CCCCCC(=O)*; AEEA = NCCOCCOCC(=O)O
What was measured:
[1] = target: T1, FAP-expressing human WI-38 fibroblasts (Homo sapiens, UniProt Q12884); assay: Competitive FACS binding assay; conditions: pIC50 Category (FACS), competition with 3 nM Cy5-labeled compound, 4° C., 1 hour
T1 construct: FAP-expressing human WI-38 fibroblasts (ECACC) were cultured in EMEM; host or cells: WI-38 human fibroblasts
T1 sequence (Q12884 1-760): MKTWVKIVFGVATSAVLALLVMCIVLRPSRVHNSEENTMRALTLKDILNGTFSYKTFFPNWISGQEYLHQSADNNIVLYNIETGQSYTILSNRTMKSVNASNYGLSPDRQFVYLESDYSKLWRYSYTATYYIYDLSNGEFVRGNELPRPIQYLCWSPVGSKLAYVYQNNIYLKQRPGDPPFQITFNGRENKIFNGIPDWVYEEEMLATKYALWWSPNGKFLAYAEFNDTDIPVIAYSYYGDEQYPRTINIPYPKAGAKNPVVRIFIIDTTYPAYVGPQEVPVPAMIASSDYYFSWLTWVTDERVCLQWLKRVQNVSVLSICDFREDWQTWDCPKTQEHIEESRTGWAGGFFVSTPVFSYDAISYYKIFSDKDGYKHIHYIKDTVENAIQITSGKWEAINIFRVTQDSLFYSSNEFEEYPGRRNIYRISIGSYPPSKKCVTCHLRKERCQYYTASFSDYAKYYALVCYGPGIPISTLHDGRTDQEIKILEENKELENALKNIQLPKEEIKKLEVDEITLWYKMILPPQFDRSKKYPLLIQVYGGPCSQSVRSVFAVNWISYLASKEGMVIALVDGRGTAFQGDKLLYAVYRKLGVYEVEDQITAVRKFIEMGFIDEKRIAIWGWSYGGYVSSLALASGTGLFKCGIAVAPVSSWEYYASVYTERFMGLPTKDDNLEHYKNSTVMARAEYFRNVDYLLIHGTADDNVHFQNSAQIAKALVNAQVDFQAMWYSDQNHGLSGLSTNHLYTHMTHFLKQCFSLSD
Experimental: Cells were analyzed in an Attune NxT flow cytometer. […]

[2] = target: T2, Human recombinant FAP (Homo sapiens, UniProt Q12884); assay: FRET-based FAP protease activity assay; format: biochemical; design: purchased R&D systems 3715-SE; conditions: pIC50 Category (Activity), FRET substrate, 37° C.
T2 sequence (Q12884 1-760): T1 sequence (Q12884 1-760)

SMILES	IC50 [1] [nM]	IC50 [2] [nM]
CCCCCC(=O)N[C@H]1CSCc2cc(CSCCN)cc(c2)CSC[C@@H](C(=O)N[C@@H](CC(=O)O)C(N)=O)NC(=O)[C@H](Cc2ccccc2)NC(=O)[C@H](CCC(N)=O)NC(=O)[C@H]([C@@H](C)O)NC(=O)[C@@H]2CCCN2C(=O)[C@@H]2CCCN2C1=O [3BP-3981, Hex-[Cys-(tMeBn(H-AET))-Pro-Pro-Thr-Gln-Phe-Cys]-Asp-NH2] (Hexanoyl-CPPTQFCD-NH2; linker 1-7 via X25)	10 to 79.4	< 10
CCCCCC(=O)N[C@H]1CSCc2cc(CSCCNC(=O)COCCOCCN)cc(c2)CSC[C@@H](C(=O)N[C@@H](CC(=O)O)C(N)=O)NC(=O)[C@H](Cc2ccccc2)NC(=O)[C@H](CCC(N)=O)NC(=O)[C@H]([C@@H](C)O)NC(=O)[C@@H]2CCCN2C(=O)[C@@H]2CCCN2C1=O [3BP-4003, Hex-[Cys-(tMeBn(H-O2Oc-AET))-Pro-Pro-Thr-Gln-Phe-Cys]-Asp-NH2] (Hexanoyl-CPPTQFCD-NH2; linker 1-7 via X39)	< 10	< 10
CCCC[C@H](NC(=O)CCC(=O)NCCCOCCOCCOCCCNC(=O)CCCCCN)C(=O)N[C@H]1CSCc2cc(cc(CN3CCN(C(=O)CN4CCN(CC(=O)O)CCN(CC(=O)O)CCN(CC(=O)O)CC4)CC3)c2)CSC[C@@H](C(=O)N[C@@H](CC(=O)O)C(N)=O)NC(=O)[C@H](Cc2ccccc2)NC(=O)[C@H](CCC(N)=O)NC(=O)[C@H]([C@@H](C)O)NC(=O)[C@@H]2CCCN2C(=O)[C@@H]2CCCN2C1=O [3BP-4004, H-Ahx-Ttds-Nle-[Cys-(tMeBn(DOTA-PP))-Pro-Pro-Thr-Gln-Phe-Cys]-Asp-NH2] ({X41-Suc}-[Nle]CPPTQFCD-NH2; linker 2-8 via X1)	10 to 79.4	< 10
CCCCCC(=O)N[C@H]1CSCc2cc(CSCCN)cc(c2)CSC[C@@H](C(=O)O)NC(=O)[C@H](Cc2ccccc2)NC(=O)[C@H](CCC(N)=O)NC(=O)[C@H]([C@@H](C)O)NC(=O)[C@@H]2CCCN2C(=O)[C@@H]2CCCN2C1=O [3BP-4089, Hex-[Cys(tMeBn(H-AET))-Pro-Pro-Thr-Gln-Phe-Cys]-OH]	100 to 794	10 to 79.4
CCCCCC(=O)N[C@@H]1CSCc2cc(CSCCNC(=O)CN3CCN(CC(=O)O)CCN(CC(=O)O)CCN(CC(=O)O)CC3)cc(c2)CSC[C@@H](C(=O)O)NC(=O)[C@H](Cc2ccccc2)NC(=O)[C@H](CCC(N)=O)NC(=O)[C@H]([C@@H](C)O)NC(=O)[C@@H]2CCCN2C(=O)[C@@H]2CCCN2C1=O [3BP-4109, Hex-[D-Cys-(tMeBn(DOTA-AET))-Pro-Pro-Thr-Gln-Phe-Cys]-OH]	< 10	< 10
CCCCCC(=O)N[C@@H]1CSCc2cc(CSCCNC(=O)CN3CCN(CC(=O)O)CCN(CC(=O)O)CCN(CC(=O)O)CC3)cc(c2)CSC[C@H](C(=O)O)NC(=O)[C@H](Cc2ccccc2)NC(=O)[C@H](CCC(N)=O)NC(=O)[C@H]([C@@H](C)O)NC(=O)[C@@H]2CCCN2C(=O)[C@@H]2CCCN2C1=O [3BP-4110, Hex-[D-Cys-(tMeBn(DOTA-AET))-Pro-Pro-Thr-Gln-Phe-D-Cys]-OH]	10 to 79.4	10 to 79.4
CCCCCC(=O)N[C@H]1CSCc2cc(CSCCNC(=O)CN3CCN(CC(=O)O)CCN(CC(=O)O)CCN(CC(=O)O)CC3)cc(c2)CSC[C@H](C(=O)O)NC(=O)[C@H](Cc2ccccc2)NC(=O)[C@H](CCC(N)=O)NC(=O)[C@H]([C@@H](C)O)NC(=O)[C@@H]2CCCN2C(=O)[C@@H]2CCCN2C1=O [3BP-4111, Hex-[Cys-(tMeBn(DOTA-AET))-Pro-Pro-Thr-Gln-Phe-D-Cys]-OH]	10 to 79.4	10 to 79.4
CCCCCC(=O)N[C@H]1CSCc2cc(cc(CN3CCN(C(=O)COCCOCCNC(=O)C(CNCCN)CNCCN)CC3)c2)CSC[C@@H](C(=O)O)NC(=O)[C@H](Cc2ccccc2)NC(=O)[C@H](CCC(N)=O)NC(=O)[C@H]([C@@H](C)O)NC(=O)[C@@H]2CCCN2C(=O)[C@@H]2CCCN2C1=O [3BP-4169, Hex-[Cys-(tMeBn(N4Ac-O2Oc-PP))-Pro-Pro-Thr-Gln-Phe-Cys]-OH]	10 to 79.4	< 10
CCCCCC(=O)N[C@H]1CSCc2cc(CSCCNC(=O)CCC(=O)NCCCOCCOCCOCCCNC(=O)CCC(=O)NCCCOCCOCCOCCCNC(=O)CCC(=O)NCCCOCCOCCOCCCNC(=O)CCCNCCCOCCOCCOCCCNC(=O)CCCC[C@H]3SC[C@H]4NC(=O)N[C@H]43)cc(c2)CSC[C@@H](C(=O)O)NC(=O)[C@H](Cc2ccccc2)NC(=O)[C@H](CCC(N)=O)NC(=O)[C@H]([C@@H](C)O)NC(=O)[C@@H]2CCCN2C(=O)[C@@H]2CCCN2C1=O [3BP-4170, Hex-[Cys-(tMeBn(Bio-Ttds-Ttds-Ttds-Ttds-AET))-Pro-Pro-Thr-Gln-Phe-Cys]-OH]	10 to 79.4	10 to 79.4
CCCCCC(=O)N[C@H]1CSCc2cc(cc(CN3CCNCC3)c2)CSC[C@@H](C(=O)O)NC(=O)[C@H](Cc2ccccc2)NC(=O)[C@H](CCC(N)=O)NC(=O)[C@H]([C@@H](C)O)NC(=O)[C@@H]2CCCN2C(=O)[C@@H]2CCCN2C1=O [3BP-4181, Hex-[Cys-(tMeBn(H-PP))-Pro-Pro-Thr-Gln-Phe-Cys]-OH]	10 to 79.4	10 to 79.4
CCCCCC(=O)N[C@H]1CSCc2cccc(c2)CSC[C@@H](C(=O)O)NC(=O)[C@H](Cc2ccccc2)NC(=O)[C@H](CCC(N)=O)NC(=O)[C@H]([C@@H](C)O)NC(=O)[C@@H]2CCCN2C(=O)[C@@H]2CCCN2C1=O [3BP-4186, Hex-[Cys-(3MeBn)-Pro-Pro-Thr-Gln-Phe-Cys]-OH]	10 to 79.4	10 to 79.4
CCCCCC(=O)N[C@H]1CSCc2cc(CSCCNC(=O)CN(CCN(CC(=O)O)CC(=O)O)CCN(CC(=O)O)CC(=O)O)cc(c2)CSC[C@@H](C(=O)O)NC(=O)[C@H](Cc2ccccc2)NC(=O)[C@H](CCC(N)=O)NC(=O)[C@H]([C@@H](C)O)NC(=O)[C@@H]2CCCN2C(=O)[C@@H]2CCCN2C1=O [3BP-4214, Hex-[Cys-(tMeBn(DTPA-AET))-Pro-Pro-Thr-Gln-Phe-Cys]-OH]	10 to 79.4	10 to 79.4
CCCC[C@H](NC(=O)CN1CCC(NC(=O)C(CNCCN)CNCCN)CC1)C(=O)N[C@H]1CSCc2cccc(c2)CSC[C@@H](C(=O)O)NC(=O)[C@H](Cc2ccccc2)NC(=O)[C@H](CCC(=O)O)NC(=O)[C@H]([C@@H](C)O)NC(=O)[C@@H]2CCCN2C(=O)[C@@H]2CCCN2C1=O [3BP-4220, N4Ac-APAc-Nle-[Cys-(3MeBn)-Pro-Pro-Thr-Glu-Phe-Cys]-OH] (X18-[X51][Nle]CPPTEFC-OH; linker 3-9 via mXylylene)	> 1000	> 1000
CCCC[C@H](NC(=O)CCC(=O)NCCCOCCOCCOCCCNC(=O)C(CNCCN)CNCCN)C(=O)N[C@H]1CSCc2cccc(c2)CSC[C@@H](C(=O)O)NC(=O)[C@H](Cc2ccncc2)NC(=O)[C@H](CCC(=O)O)NC(=O)[C@H]([C@@H](C)O)NC(=O)[C@@H]2CCCN2C(=O)[C@@H]2CCCN2C1=O [3BP-4223, N4Ac-Ttds-Nle-[Cys-(3MeBn)-Pro-Pro-Thr-Glu-Ppa-Cys]-OH] ({X12-Suc}-[Nle]CPPTE[4Pal]C-OH; linker 2-8 via mXylylene)	100 to 794	100 to 794
CCCCCC(=O)N[C@H]1CSCc2cc(CSCCNC(=O)COCCOCCNC(=O)CN(CCN(CC(=O)O)CC(=O)O)CCN(CC(=O)O)CC(=O)O)cc(c2)CSC[C@@H](C(=O)O)NC(=O)[C@H](Cc2ccccc2)NC(=O)[C@H](CCC(N)=O)NC(=O)[C@H]([C@@H](C)O)NC(=O)[C@@H]2CCCN2C(=O)[C@@H]2CCCN2C1=O [3BP-4224, Hex-[Cys-(tMeBn(DTPA-O2Oc-AET))-Pro-Pro-Thr-Gln-Phe-Cys]-OH]	10 to 79.4	10 to 79.4
CCCC[C@H](NC(=O)COCCOCCNC(=O)C(CNCCN)CNCCN)C(=O)N[C@H]1CSCc2cccc(c2)CSC[C@@H](C(=O)O)NC(=O)[C@H](Cc2ccccc2)NC(=O)[C@H](CCC(=O)O)NC(=O)[C@H]([C@@H](C)O)NC(=O)[C@@H]2CCCN2C(=O)[C@@H]2CCCN2C1=O [3BP-4228, N4Ac-O2O-Nle-[Cys-(3MeBn)-Pro-Pro-Thr-Glu-Phe-Cys]-OH] ({X18-AEEA}-[Nle]CPPTEFC-OH; linker 2-8 via mXylylene)	> 1000	100 to 794
CCCC[C@H](NC(=O)CCC(=O)NCCCOCCOCCOCCCNC(=O)CN(CCN(CC(=O)O)CC(=O)O)CCN(CC(=O)O)CC(=O)O)C(=O)N[C@H]1CSCc2cccc(c2)CSC[C@@H](C(=O)O)NC(=O)[C@H](Cc2ccccc2)NC(=O)[C@H](CCC(=O)O)NC(=O)[C@H]([C@@H](C)O)NC(=O)[C@@H]2CCCN2C(=O)[C@@H]2CCCN2C1=O [3BP-4229, DTPA-Ttds-Nle-[Cys-(3MeBn)-Pro-Pro-Thr-Glu-Phe-Cys]-OH] ({X35-Suc}-[Nle]CPPTEFC-OH; linker 2-8 via mXylylene)	100 to 794	10 to 79.4

From patent US20220315554A1, “COMPOUNDS COMPRISING A […] LIGAND AND USE THEREOF” (priority 2019, published 2022)
